In ChEMBL document CHEMBL3817829, “Spirooxindoles as novel 3D-fragment scaffolds: Synthesis and screening against CYP121 from M. tuberculosis” (Bioorg Med Chem Lett, 2016):

Tests used:
[1] = Solubility of compound in 50 mM Tris-Hcl/1mM EDTA at 1 mM at pH 7.5; assay type: physicochemical; conditions: buffer, pH 7.5, 1000 µM
[2] = target: T1, Mycocyclosin synthase (Mycobacterium tuberculosis, UniProt P9WPP7); test: Binding affinity to Mycobacterium tuberculosis recombinant His6-tagged CYP121 expressed in Escherichia coli C41(DE3) cells assessed as change in wavelength of heme soret band at 1 mM by UV-visible spectrophotometric method; conditions: 1000 µM
T1 sequence (P9WPP7 whole entry): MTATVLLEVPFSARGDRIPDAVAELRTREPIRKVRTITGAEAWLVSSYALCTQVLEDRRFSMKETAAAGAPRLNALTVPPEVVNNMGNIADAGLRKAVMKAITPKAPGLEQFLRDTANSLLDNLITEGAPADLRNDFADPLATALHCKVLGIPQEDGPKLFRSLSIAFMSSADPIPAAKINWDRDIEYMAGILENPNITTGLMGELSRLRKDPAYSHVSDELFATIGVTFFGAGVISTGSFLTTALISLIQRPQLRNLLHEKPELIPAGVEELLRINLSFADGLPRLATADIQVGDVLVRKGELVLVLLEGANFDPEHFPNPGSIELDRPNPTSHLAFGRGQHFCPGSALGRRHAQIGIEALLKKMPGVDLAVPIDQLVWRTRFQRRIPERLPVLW

[3] = target: T1, Mycocyclosin synthase; test: Binding affinity to Mycobacterium tuberculosis recombinant His6-tagged CYP121 expressed in Escherichia coli C41(DE3) cells by isothermal titration calorimetry

Structure (SMILES)	solubility [1]	Activity [2]	Kd [3] [µM]
CCOC(=O)/C=C1/C(=O)Nc2ccccc21	soluble	0 nm	
CCOC(=O)/C=C1/C(=O)Nc2ccc(F)cc21	soluble	0 nm	
CCOC(=O)/C=C1/C(=O)Nc2ccc(Cl)cc21	Insoluble	ND(Insoluble)	
CCOC(=O)[C@@H]1[C@@H]2C=C[C@@H](C2)[C@@]12C(=O)Sc1ccccc12	soluble	0 nm	
N#CCC1C(=O)Nc2ccccc21 (configuration not stated)	soluble	0 nm	
CN1C(=O)C(CC#N)c2ccccc21 (configuration not stated)	soluble	0 nm	
CCOC(=O)[C@H]1[C@@H]2C=C[C@@H](C2)[C@]12C(=O)N(C(C)=O)c1ccccc12	soluble	0 nm	
N#C/C=C1/C(=O)Nc2ccc(OC(F)(F)F)cc21	soluble	0 nm	
CCOC(=O)CC1C(=O)Nc2ccc(OC(F)(F)F)cc21 (configuration not stated)	soluble	0 nm	
CCOC(=O)[C@H]1[C@@H]2C=C[C@@H](C2)[C@]12C(=O)Sc1ccccc12	soluble	-1 nm	
CCOC(=O)[C@H]1[C@@H]2C=C[C@@H](C2)[C@]12C(=O)Nc1ccc(OC(F)(F)F)cc12	soluble	0 nm	
N#C/C=C1/C(=O)Nc2ccccc21	soluble	0 nm	
CCOC(=O)[C@@H]1[C@@H]2C=C[C@@H](C2)[C@@]12C(=O)Oc1ccccc12	soluble	0 nm	
CCOC(=O)[C@@H]1[C@@H]2C=C[C@@H](C2)[C@@]12C(=O)Nc1ccc(OC(F)(F)F)cc12	soluble	0 nm	
Nc1ccc2nccc(-n3cncn3)c2c1		3 nm	28
N#CCC1C(=O)Nc2ccc(OC(F)(F)F)cc21 (configuration not stated)	soluble	-2 nm	
CCOC(=O)[C@@H]1[C@@H]2C=C[C@@H](C2)[C@@]12C(=O)N(C)c1ccccc12	soluble	0 nm	
CCOC(=O)/C=C1/C(=O)Sc2ccccc21	soluble	0 nm	
CCOC(=O)CC1C(=O)Oc2ccccc21 (configuration not stated)	soluble	0 nm	
CCOC(=O)[C@@H]1[C@@H]2C=C[C@@H](C2)[C@@]12C(=O)Nc1ccc(F)cc12	soluble	0 nm	
CCOC(=O)/C=C1/C(=O)N(C)c2ccccc21	soluble	0 nm	

Structure (SMILES)	solubility [1]	Activity [2]	Kd [3] [µM]
N#C[C@@H]1[C@@H]2C=C[C@@H](C2)[C@@]12C(=O)Nc1ccccc12	soluble	0 nm	
CCOC(=O)[C@H]1[C@@H]2C=C[C@@H](C2)[C@]12C(=O)Nc1ccc(Cl)cc12	soluble	-1 nm	
CCOC(=O)/C=C1/C(=O)Nc2ccc([N+](=O)[O-])cc21	Insoluble	ND(Insoluble)	
CCOC(=O)[C@H]1[C@@H]2C=C[C@@H](C2)[C@]12C(=O)Nc1ccccc12	soluble	0 nm	
CCOC(=O)[C@H]1[C@@H]2C=C[C@@H](C2)[C@]12C(=O)N(C)c1ccccc12	soluble	-2 nm	
CCOC(=O)/C=C1/C(=O)Oc2ccccc21	soluble	-1 nm	
CCOC(=O)[C@@H]1[C@@H]2C=C[C@@H](C2)[C@@]12C(=O)N(C(C)=O)c1ccccc12	soluble	0 nm	
CCOC(=O)[C@@H]1[C@@H]2C=C[C@@H](C2)[C@@]12C(=O)Nc1ccc(Cl)cc12	soluble	0 nm	
CCOC(=O)/C=C1/C(=O)Nc2ccc(OC(F)(F)F)cc21	soluble	0 nm	
CCOC(=O)[C@H]1[C@@H]2C=C[C@@H](C2)[C@]12C(=O)Nc1ccc(F)cc12	soluble	0 nm	
CN1C(=O)/C(=C/C#N)c2ccccc21	soluble	0 nm	
N#C[C@H]1[C@@H]2C=C[C@@H](C2)[C@]12C(=O)Nc1ccccc12	soluble	0 nm	
CCOC(=O)CC1C(=O)Nc2ccc(F)cc21 (configuration not stated)	soluble	0 nm	
CCOC(=O)[C@H]1[C@@H]2C=C[C@@H](C2)[C@]12C(=O)Oc1ccccc12	soluble	-1 nm	
CCOC(=O)CC1C(=O)Nc2ccc(Cl)cc21 (configuration not stated)	soluble	0 nm	
CCOC(=O)/C=C1/C(=O)N(C(C)=O)c2ccccc21	soluble	0 nm	
CCOC(=O)[C@@H]1[C@@H]2C=C[C@@H](C2)[C@@]12C(=O)Nc1ccccc12	soluble	-1 nm	
N#CC1[C@@H]2C=C[C@@H](C2)C12C(=O)Nc1ccccc12 (mixture of isomers)	soluble	0 nm	
N#CC1[C@@H]2C=C[C@@H](C2)C12C(=O)Nc1ccc(OC(F)(F)F)cc12 (mixture of isomers)	soluble	0 nm	
CCOC(=O)C1[C@@H]2C=C[C@@H](C2)C12C(=O)Nc1ccc([N+](=O)[O-])cc12 (mixture of isomers)	Insoluble	ND(Insoluble)	
